Values quoted from earlier work as cited in patent EP1941860A1, “Topical formulations” (ACO Hud Nordic AB, priority 2006, dated 2008).

Conditions: in prior art formulations

CC(O)C(=O)O (stereo not shown) [lactic acid]
concentration producing a stinging action: about 0.5 % by weight of the formulation
